Source: PubChem BioAssay AID1745844 (Carcinogenic Potency Database (CPDB), 2022)
Active and inactive are the calls of the source. The rule behind the calls is not given here.

System: rodent lifetime carcinogenesis bioassay, tumor incidence TD50
Assay: chronic cancer bioassays in animals – CPDB, compiled studies (AID 1745844)

Cc1ncc([N+](=O)[O-])n1C
TD50 (rat, strain Sprague-Dawley, females, in feed, site: any site (literature study), lesion: several types, types named in the paper, dosed 46 weeks, study length 66 weeks): 17 mg/kg/day | TD50 (rat, strain Sprague-Dawley, females, in feed, site: mammary gland, lesion: fibroadenoma, dosed 46 weeks, study length 66 weeks): 17 mg/kg/day

CC(=O)CN(C)N=O
TD50 (rat, strain MRC, females, by gavage, site: esophagus, lesion: several types, types named in the paper, dosed 67 weeks, study length 76 weeks): 0.16 mg/kg/day | TD50 (rat, strain MRC, females, by gavage, site: liver, lesion: several types, types named in the paper, dosed 67 weeks, study length 76 weeks): 0.268 mg/kg/day | TD50 (rat, strain MRC, females, by gavage, site: nasal and paranasal cavity, lesion: several types, types named in the paper, dosed 67 weeks, study length 76 weeks): 0.0167 mg/kg/day | TD50 (rat, strain MRC, females, by gavage, site: pharynx, lesion: several types, types named in the paper, dosed 67 weeks, study length 76 weeks): 0.0758 mg/kg/day | TD50 (rat, strain MRC, males, by gavage, site: esophagus, lesion: several types, types named in the paper, dosed 51 weeks, study length 58 weeks): 0.0642 mg/kg/day | TD50 (rat, strain MRC, males, by gavage, site: liver, lesion: several types, types named in the paper, dosed 51 weeks, study length 58 weeks): 0.252 mg/kg/day | TD50 (rat, strain MRC, males, by gavage, site: nasal and paranasal cavity, lesion: several types, types named in the paper, dosed 51 weeks, study length 58 weeks): 0.0178 mg/kg/day | TD50 (rat, strain MRC, males, by gavage, site: nasopharynx, lesion: papilloma, dosed 51 weeks, study length 58 weeks): 0.942 mg/kg/day | TD50 (rat, strain MRC, males, by gavage, site: pharynx, lesion: several types, types named in the paper, dosed 51 weeks, study length 58 weeks): 0.023 mg/kg/day

NC(=O)N(CCCO)N=O
TD50 (rat, strain Fischer 344, females, by gavage, site: forestomach, lesion: one or several types, types not named, dosed 30 weeks, study length 104 weeks): 1.27 mg/kg/day | TD50 (rat, strain Fischer 344, females, by gavage, site: liver, lesion: one or several types, types not named, dosed 30 weeks, study length 104 weeks): 1.27 mg/kg/day | TD50 (rat, strain Fischer 344, males, by gavage, site: forestomach, lesion: one or several types, types not named, dosed 30 weeks, study length 104 weeks): 1.98 mg/kg/day | TD50 (rat, strain Fischer 344, males, by gavage, site: forestomach, lesion: one or several types, types not named, dosed 40 weeks, study length 104 weeks): 0.866 mg/kg/day | TD50 (rat, strain Fischer 344, males, by gavage, site: liver, lesion: one or several types, types not named, dosed 30 weeks, study length 104 weeks): 3.78 mg/kg/day | TD50 (rat, strain Fischer 344, males, by gavage, site: liver, lesion: one or several types, types not named, dosed 40 weeks, study length 104 weeks): 1.24 mg/kg/day | TD50 (rat, strain Fischer 344, males, by gavage, site: lung, lesion: several types, types named in the paper, dosed 30 weeks, study length 104 weeks): 1.79 mg/kg/day | TD50 (rat, strain Fischer 344, males, by gavage, site: skin, lesion: several types, types named in the paper, dosed 30 weeks, study length 104 weeks): 0.668 mg/kg/day | TD50 (rat, strain Fischer 344, males, by gavage, site: stomach, glandular, lesion: one or several types, types not named, dosed 30 weeks, study length 104 weeks): 0.888 mg/kg/day

O=NN1CCOC(O)C1 (centres undefined)
TD50 (rat, strain Fischer 344, females, in drinking water, site: liver, lesion: hepatocellular carcinoma, dosed 50 weeks, study length 122 weeks): 14.9 mg/kg/day (inactive)

ClCOCc1ccc(COCCl)cc1
TD50 (mouse, strain Ha/ICR, females, i.p., site: abdomen, lesion: sarcoma, dosed 77 weeks, study length 77 weeks): 3.11 mg/kg/day

CCCCN(CCCCO)N=O
TD50 (rat, strain F344/DuCrj, males, in drinking water, site: liver, lesion: hyperplastic nodule, dosed 106 weeks, study length 112 weeks): 0.169 mg/kg/day | TD50 (rat, strain F344/DuCrj, males, in drinking water, site: urinary bladder, lesion: papilloma, dosed 106 weeks, study length 112 weeks): 0.447 mg/kg/day | TD50 (rat, strain F344/DuCrj, males, in drinking water, site: urinary bladder, lesion: transitional-cell carcinoma, dosed 106 weeks, study length 112 weeks): 0.432 mg/kg/day | carcinogen call (rat, strain Fischer 344, females, in feed, site: urinary bladder, lesion: carcinoma, dosed 103 weeks, study length 103 weeks): positive | TD50 (rat, strain Fischer 344, males, in drinking water, site: testis, lesion: Leydig-cell tumor, dosed 78 weeks, study length 78 weeks): 0.386 mg/kg/day | TD50 (rat, strain Fischer 344, males, in drinking water, site: urinary bladder, lesion: transitional-cell carcinoma, dosed 78 weeks, study length 78 weeks): 0.175 mg/kg/day | TD50 (rat, strain Fischer 344, males, in feed, site: liver, lesion: hepatocellular carcinoma, dosed 103 weeks, study length 103 weeks): 185 mg/kg/day | TD50 (rat, strain Fischer 344, males, in feed, site: urinary bladder, lesion: carcinoma, dosed 103 weeks, study length 103 weeks): 0.549 mg/kg/day | TD50 (rat, strain Sprague-Dawley, males, by gavage, site: lung, lesion: carcinoma, dosed 39 weeks, study length 74 weeks): 166 mg/kg/day | TD50 (rat, strain Sprague-Dawley, males, by gavage, site: urinary bladder, lesion: several types, types named in the paper, dosed 39 weeks, study length 74 weeks): 1.17 mg/kg/day | TD50 (rat, strain Sprague-Dawley, males, in drinking water, site: liver, lesion: liver-cell carcinoma, dosed 104 weeks, study length 104 weeks): 271 mg/kg/day | TD50 (rat, strain Sprague-Dawley, males, in drinking water, site: urinary bladder, lesion: carcinoma, dosed 104 weeks, study length 104 weeks): 3.3 mg/kg/day
